Data: patent US4469795A, “Radioassay for monosialoglycosphingolipid (GM1) ganglioside concentration” (priority 1981, dated 1984)

Tested on: iodotoxin binding to liver membranes
Parameters: species or system rat

| Substance | inhibition of liver membrane toxin binding | time until binding of iodotoxin to GM1 ganglioside is complete | inhibition of iodotoxin binding to liver membranes by the unlabelled enterotoxin | reversal of inhibition of iodotoxin binding to liver membranes |
| --- | --- | --- | --- | --- |
| monosialoglycosphingolipid GM1 ganglioside | greater than 94% | thirty |  |  |
| cholera toxin |  |  | did not occur | greater than 92% |
